We go through 8 molecules from paper PMC7582324, “Potential Anti-Acetylcholinesterase Activity of Cassia timorensis DC” (Molecules, 2020).

Converted amounts (≈) assume the structure as drawn. “Also recorded” adds a separate entry of the source. Read-outs that look alike come from different tables or passages of the source.

For series [1] the following is noted: cited from earlier work.
The target of series [2] is Acetylcholinesterase (AChE) from Electrophorus electricus (electrical eels) type VI-S (Electrophorus electricus, UniProt O42275). As to the kind of experiment: biochemical. Type of series: biochemical. Particulars: for inhibition at 100 µg/mL: read-out: AChE inhibition (%). The protocol: Coloring agent 5-5′dithiobis [2-nitrobenzoicacid] (DTNB) was purchased from ACROS (Geel, Belgium). Silica gel (Kieselgel 60, 230–400 mesh atm) was purchased from Merck (Darmstadt, Germany). The solvents were of analytical grade and used as received.
The in vitro AChE inhibition assay was evaluated using a spectrophotometry method developed by Ellman with some modifications. […] Plant extracts were dissolved in dimethyl sulfoxide (DMSO) and tested at a final concentration of 0.2 mg/mL, while compounds were tested at 0.1 mg/mL. The final concentration of DMSO was fixed at 1% in the 96-well plate. In a 96-well plate, 178 µL of 50 mM phosphate buffer, 2 µL of […] compound and 20 mg/mL extract, and 10 µL of 0.5 U/mL AChE were added. The first incubation period was 15 min at 25 °C. Five microliters of 14 mM ATCI substrate and 10 mM of the color indicator, DTNB, were added equally into each well and the well was then incubated at 25 °C for 30 min to initiate the enzyme reaction. The absorbance was measured at 415 nm using Promega Glomax® Multi Plus Reader (Promega, Madison, WI, USA). […] The percentage of inhibition was calculated using formula (1):(1) Percentage Inhibition (%) = Absorbance of negative control − Absorbance of test sample/ Absorbance of negative control × 100
IC50 values of plant crude extract, fractions, and compounds were calculated from the graph of percentage of inhibition versus extract concentrations using Microsoft Excel. GraphPad Prism software was used to generate the graphs.

A further series relates to AChE. Particulars: individual compounds; cited from earlier work.
The mark [3] stands for this setting: isolated compounds at 0.1 mg/mL.

Acetylcholinesterase (AChE) from Electrophorus electricus (electrical eels) type VI-S, sequence (O42275 24-633): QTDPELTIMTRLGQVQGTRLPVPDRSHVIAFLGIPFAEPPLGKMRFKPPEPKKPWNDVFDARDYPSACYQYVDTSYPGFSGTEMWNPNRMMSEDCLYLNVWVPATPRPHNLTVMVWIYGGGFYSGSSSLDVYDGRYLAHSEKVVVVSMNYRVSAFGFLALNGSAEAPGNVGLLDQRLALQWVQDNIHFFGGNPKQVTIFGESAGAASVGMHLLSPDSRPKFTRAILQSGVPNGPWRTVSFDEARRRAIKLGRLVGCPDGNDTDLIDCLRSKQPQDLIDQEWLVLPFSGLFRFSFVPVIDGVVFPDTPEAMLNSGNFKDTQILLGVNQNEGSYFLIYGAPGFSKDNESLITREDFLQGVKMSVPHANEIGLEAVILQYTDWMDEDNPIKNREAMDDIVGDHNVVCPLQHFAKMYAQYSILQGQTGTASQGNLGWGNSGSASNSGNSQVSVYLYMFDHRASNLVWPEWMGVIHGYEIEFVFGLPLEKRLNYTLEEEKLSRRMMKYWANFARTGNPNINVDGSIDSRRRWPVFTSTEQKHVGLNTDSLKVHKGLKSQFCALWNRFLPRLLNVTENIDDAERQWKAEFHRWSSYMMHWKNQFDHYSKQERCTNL

aceronin: in series [1], the BBB permeability result is recorded as “high BBB permeability”. Regarding `CCC=CCC=CCC=CCCCCCCCC(=O)O` [Compound 3, 9,12,15-octadecatrienoic acid], in series [2], the “AChE inhibitory activity (in words)” value is reported as “weak inhibitory activity; also recorded: not active” and the inhibition at 100 µg/mL was less than 50%. With `COc1ccc(-c2cc(=O)c3c(O)c(OC)c(O)c(OC)c3o2)cc1` [nevadensin], the BBB permeability entry in series [1] was “high BBB permeability”.

With `CC[C@H](/C=C/[C@@H](C)[C@H]1CC[C@H]2[C@@H]3CC=C4C[C@@H](O)CC[C@]4(C)[C@H]3CC[C@]12C)C(C)C` [Compound 5, stigmasterol], in series [2], the inhibition at 100 µg/mL is less than 50%. For the same molecule, in the series with AChE, the “IC50 against AChE” value is 63 µg/mL (≈ 153 µM). Consider `CC[C@H](CC[C@@H](C)[C@H]1CC[C@H]2[C@@H]3CC=C4C[C@@H](O)CC[C@]4(C)[C@H]3CC[C@]12C)C(C)C` [Compound 4, β-sitosterol], for which the inhibition at 100 µg/mL in series [2] is less than 50%. For the same molecule, the “IC50 against AChE” value with AChE was 55 µg/mL (≈ 133 µM). In the case of `CCCCCCCCCCCCCCCCCCO` [Compound 6, 1-octadecanol], the “AChE inhibitory activity (in words)” value in series [2] (setting [3]) is listed as “weak inhibitory activity; also recorded: not active”. Moreover, the inhibition at 100 µg/mL in series [2] was less than 50%. Regarding `COc1cc(-c2cc(=O)c3c(O)c(OC)c(O)c(OC)c3o2)ccc1O` [sudachitin], in series [1], the BBB permeability entry is given as “high BBB permeability”. Regarding `COc1c(-c2ccc(O)c(O)c2)oc2cc(O)cc(O)c2c1=O` [Compound 1, 3-methoxyquercetin], in series [2], the “AChE activity relative to quercetin” value is given as “approximately three times higher than quercetin”. In addition, the “AChE inhibitory activity (in words)” value in series [2] (setting [3]) is “moderate inhibition”. Further, the concentration for half-maximal inhibition (IC50) in series [2] (mean ± s.d. (n = 3), read-out: AChE Inhibition (IC50)) was determined as 83.7 ± 4.67 µM.
